Data set [1] has as its target neuronal nicotinic cholinergic channels in IMR-32 cells (Homo sapiens, UniProt P30926+P32297). Description: 86Rb+ efflux in IMR-32 cells (activation, or inhibition of efflux elicited by (S)-nicotine). The note with it: for inhibition at 1 µM / inhibition at 10 µM: inhibition of the efflux elicited by 100 μM (S)-nicotine; for inhibition at 1 µM: single dose 1 μM; for inhibition at 10 µM: single dose 10 μM. The format is cell-based. From the text: For the purpose of directly evaluating the ability of test compounds to functionally activate or inhibit certain subtypes of neuronal nicotinic cholinergic channels, an assay to determine ^86Rb^+Efflux in IMR-32 cells was employed (Protocol B below).
B. Protocols for the Determination of Functional Effects of Cholinerzic Channel Receptor Ligands on Synaptic Transmission
Cells of the IMR-32 human neuroblastoma clonal cell line (ATCC, Rockville, Md.) were maintained in a log phase of growth according to established procedures (Lukas, 1993). Experimental cells were seeded at a density of 500,000 cells/ml into a 24-well tissue culture dish. Plated cells were allowed to proliferate for at least 48 hours before loading with 2 μCi/ml of ^86Rb^+ (35 Ci/mmol) overnight at 37° C. The ^86Rb^+ efflux assays were performed according to previously published protocols (Lukas, R. J., J. Pharmacol. Exp. Ther., 265: 294-302, 1993) except serum-free Dulbecco's Modified Eagle's Medium was used during the ^86Rb^+ loading, rinsing, and agonist-induced efflux steps.
EC50 data and maximal responses (reported as percent relative to the response elicited by 100 μM (S)-nicotine) are shown for selected compounds of the invention. The inhibition data (given for a larger number of compounds) reflect inhibition of the efflux elicited by 100 μM (S)-nicotine for either a single dose (% inhibition at 1 μM or at 10 μM) or over a range of doses (IC50 of inhibition). […] This finding is in agreement with the results of others who have linked dopamine release, which is dependent upon the ion flux in synaptic transmission, to binding at nicotinic receptors (cf., for example, Lippiello and Caldwell, U.S. Pat. No. 5,242,935, issued Sep. 7, 1993; Caldwell and Lippiello, U.S. Pat. No. 5,248,690, issued Sep. 28, 1993; and Wonnacott et al., Prog. Brain Res., 79: 157-163 (1989)).

In data set [2] the target is neuronal nicotinic cholinergic channel receptors (Rattus norvegicus, UniProt P09483+P12390). The note with it: displacement of [3H]-cytisine (1.25 nM), whole rat brain membranes; Ki from IC50 by Cheng and Prusoff correction; read-out: Binding Ki. The procedure: A. Protocol For Determination of Nicotinic Cholinergic Channel Receptor Binding Potencies of Ligands
Binding of [^3H]-cytisine ([^3H]-CYT) to nicotinic receptors was accomplished using crude synaptic membrane preparations from whole rat brain (Pabreza et al., Molecular Pharmacol, 1990, 39:9). Washed membranes were stored at −80° C. prior to use. Frozen aliquots were slowly thawed and resuspended in 20 volumes of buffer (containing: 120 mM NaCl, 5 mM KCl, 2 mM MgCl2, 2 mM CaCl2 and 50 mM Tris-Cl, pH 7.4 @ 4° C.). After centrifuging at 20,000×g for 15 minutes, the pellets were resuspended in 30 volumes of buffer. Homogenate (containing 125-150 μg protein) was added to triplicate tubes containing concentrations of test compound and [^3H]-CYT (1.25 nM) in a final volume of 500 μL. Samples were incubated for 60 minutes at 4° C., then rapidly filtered through Whatman GF/B filters presoaked in 0.5% polyethyleneimine using 3×4 mL of ice-cold buffer. The filters are counted in 4 mL of Ecolume® (ICN). Nonspecific binding was determined in the presence of […] (−)-nicotine and values were expressed as a percentage of total binding.

Counter-ions that a name gives are not always drawn.

The text below walks through data of US6437138B1, “3-pyridyloxymethyl heterocyclic ether compounds useful in controlling chemical synaptic transmission” (priority 1996, dated 2002).

One may read the inhibition as the relative decrease from the control value, in per cent. The low end stands for little suppression, the high end for strong suppression. What is called Ki is a measure of affinity in units of concentration, obtained from inhibition or displacement. A word on the melting point: it is the temperature of the solid-liquid transition. In general, EC50 refers to the concentration that produces a half-maximal response.

Sequence of neuronal nicotinic cholinergic channel receptors (P09483 31-630): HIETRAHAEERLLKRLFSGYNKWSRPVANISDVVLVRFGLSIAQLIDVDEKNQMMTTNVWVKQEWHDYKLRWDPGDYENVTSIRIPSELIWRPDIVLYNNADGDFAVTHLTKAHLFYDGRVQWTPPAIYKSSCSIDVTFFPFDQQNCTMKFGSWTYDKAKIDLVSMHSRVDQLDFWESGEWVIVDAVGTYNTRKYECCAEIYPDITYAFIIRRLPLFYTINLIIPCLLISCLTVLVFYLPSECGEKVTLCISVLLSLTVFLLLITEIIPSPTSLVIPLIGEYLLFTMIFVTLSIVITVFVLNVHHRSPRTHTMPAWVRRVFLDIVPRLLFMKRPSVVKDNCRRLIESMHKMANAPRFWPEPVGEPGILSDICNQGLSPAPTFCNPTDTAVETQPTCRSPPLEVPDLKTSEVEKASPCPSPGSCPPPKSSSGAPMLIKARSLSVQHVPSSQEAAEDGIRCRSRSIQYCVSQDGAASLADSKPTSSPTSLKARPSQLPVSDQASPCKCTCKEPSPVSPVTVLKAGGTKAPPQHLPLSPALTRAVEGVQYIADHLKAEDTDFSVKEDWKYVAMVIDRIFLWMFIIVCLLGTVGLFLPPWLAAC
Sequence of neuronal nicotinic cholinergic channel receptors (P12390 25-500): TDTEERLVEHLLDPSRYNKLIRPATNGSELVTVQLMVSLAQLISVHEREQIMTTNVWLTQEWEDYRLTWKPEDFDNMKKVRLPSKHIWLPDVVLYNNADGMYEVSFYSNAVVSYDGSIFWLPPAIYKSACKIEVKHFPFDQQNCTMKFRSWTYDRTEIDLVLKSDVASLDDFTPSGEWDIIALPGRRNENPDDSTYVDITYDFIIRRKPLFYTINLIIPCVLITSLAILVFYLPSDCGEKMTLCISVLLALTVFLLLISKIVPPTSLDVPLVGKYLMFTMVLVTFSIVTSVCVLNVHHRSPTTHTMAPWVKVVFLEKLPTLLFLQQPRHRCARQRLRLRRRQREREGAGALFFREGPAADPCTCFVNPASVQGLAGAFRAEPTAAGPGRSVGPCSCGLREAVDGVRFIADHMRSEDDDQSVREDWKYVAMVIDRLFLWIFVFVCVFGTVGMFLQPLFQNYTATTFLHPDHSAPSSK

For `CC(=O)c1cncc(OC[C@@H]2CCCN2C)c1` [Example 10, 5-Acetyl-3-(1-methyl-2-(S)-pyrrolidinylmethoxy)pyridine Dihydrochloride], the inhibition at 1 µM in data set [1] (IMR-32) came out at 32%. In addition, the inhibition constant Ki in data set [2] was 1200 pM.
In the same order, the values of `CN1CCC[C@H]1COc1cncc(-c2ccc(F)cc2)c1` [Example 11, 5-(4-Fluorophenyl)-3-(1-methyl-2-(S)-pyrrolidinylmethoxy)pyridine Dihydrochloride] are 38% and 110 pM.
The corresponding values for `CN1CCC[C@H]1COc1cncc(/C=C/c2ccccc2)c1` [Example 18, 5-trans-(2-Phenylethenyl)-3-(1-methyl-2-(S)-pyrrolidinylmethoxy)pyridine Dihydrochloride] are 43% and 240 pM.
In the same order, the values of `CN1CCC[C@H]1COc1cncc(C(=O)N2CCCC2)c1` [Example 19, 5-(1-Pyrrolidinylcarbonyl)-3-(1)-methyl-2-(S)-pyrrolidinylmethoxy)pyridine Dihydrochloride] are 14% and 20000 pM.
Consider `CN1CCC[C@H]1COc1cncc(CCc2ccccc2)c1` [Example 21, 5-(2-Phenylethyl)-3-(1-methyl-2-(S)-pyrrolidinylmethoxy)pyridine Dihydrochloride], for which the inhibition at 1 µM in data set [1] (IMR-32) is 22%. Moreover, the inhibition constant Ki in data set [2] is 220 pM.
In the same order, the values of `COC(=O)c1cncc(OC[C@@H]2CCCN2C)c1` [Example 27, 5-Methoxycarbonol-3-(1-methyl-2-(S)-pyrrolidinylmethoxy)pyridine Dihydrochloride] are 26% and 1500 pM.
`CN1CCC[C@H]1COc1cncc(CCc2ccncc2)c1` [Example 29, 5-(2-(4-Pyridinnyl)ethyl)-3-(1-methyl-2-(S)-pyrrolidinnylmethoxy)pyridine Trihydrochloride] came in with an inhibition at 1 µM in data set [1] (IMR-32) of 32%. In data set [2], the Ki was found to be 64 pM.
Regarding `CN1CCC[C@H]1COc1cncc(-c2ccc3ccccc3c2)c1` [Example 31, 5-(2-Naphthalenyl-3-(1-methyl-2-(S)-pyrrolidinylmethoxy)pyridine Dihydrochloride], the inhibition at 1 µM in data set [1] (IMR-32) is 37%. Also, the Ki in data set [2] was 330 pM.
Compound `Cl.Cl.Clc1ncc(OC[C@@H]2CCCN2)cc1-c1cccnc1` [Example 34, 5-(3-Pyridinyl)-6-chloro-3-(2-(S)-pyrrolidinylmethoxy)pyridine Dihydrochloride] came in with a melting point of 195 to 198 °C. For the same compound, the Emax in data set [1] (IMR-32, 86Rb+ efflux, percent relative to the response elicited by 100 μM (S)-nicotine, read-out: IMR-32 maximal response) was determined as 88%. Moreover, in data set [2], the Ki turned out to be 21 pM.
In the case of `CN1CCC[C@H]1COc1cncc(-c2cnc3ccccc3c2)c1` [Example 35, 5-(3-Ouinolinyl)-3-(1-methyl-2-(S)-pyrrolidinylmethoxy)pyridine Trihydrochloride], the inhibition at 1 µM in data set [1] (IMR-32) amounted to 34%. Besides, the Ki in data set [2] came out at 390 pM.
The compound `CN1CCC[C@H]1COc1cncc(-c2cc3ccccc3n2C)c1.Cl` [Example 36, 5-(1-Methyl-2-indolyl)-3-(1-methyl-2-(S)-pyrrolidinylmethoxy)pyridine Hydrochloride] returned a melting point of 195 to 197 °C. In data set [1] (IMR-32), this compound registered an inhibition at 1 µM of 28%. Further, in data set [2], the inhibition constant Ki stood at 320 pM.
In the case of `CN1CCC[C@H]1COc1cncc(-c2cc(C(F)(F)F)cc(C(F)(F)F)c2)c1` [Example 37, 5-(3,5-bis(Trifluoromehyl)phenyl)-3-(1-methyl-2-(S)-pyrrolidinylmethoxy)pyridine Dihydrochloride], in data set [1] (IMR-32), the inhibition at 1 µM stood at 41%. Further, in data set [2], the Ki was found to be 2400 pM.
As for `CN1CCC[C@H]1COc1cncc(-c2ccc(Cl)cc2)c1.Cl.Cl` [Example 38, 5-(4-Chlorophenyl)-3-(1-methyl-2-(S)-pyrrolidinylmethoxy)pyridine Dihydrochloride], the melting point lay within 224 to 226 °C. In data set [1] (IMR-32), this compound registered an inhibition at 1 µM of 29% and an inhibition at 10 µM of 100%. Moreover, the Ki in data set [2] came to 82 pM.
Compound `CN1CCC[C@H]1COc1cncc(-c2ccc(Cl)cc2Cl)c1.Cl.Cl` [Example 39, 5-(2,4-Dichlorophenyl)-3-(1-methyl-2-(S)-pyrrolidinylmethoxy)pyridine Dihydrochloride] registered a melting point of 176 to 178 °C. Further, the inhibition at 1 µM in data set [1] (IMR-32) was 52%. Further, the Ki in data set [2] came out at 160 pM.
`CN1CCC[C@H]1COc1cncc(C#Cc2ccccc2)c1.Cl.Cl` [Example 40, 5-(2-Phenylethynyl)-3-(1-methyl-2-(S)-pyrrolidinylmethoxy)pyridine Dihydrochloride] returned a melting point of 190 to 192 °C. In data set [1] (IMR-32), this compound came in with an inhibition at 1 µM of 30% and an inhibition at 10 µM of 100%. For the same compound, the Ki in data set [2] was found to be 160 pM.
Turning to `Cc1ccc(-c2cncc(OC[C@@H]3CCCN3C)c2)cc1.Cl.Cl` [Example 41, 5-(4-Methylphenyl)-3-(1-methyl-2-(S)-pyrrolidinylmethoxy)pyridine Dihydrochloride], the melting point lay in the range of 204 to 206 °C. In data set [1] (IMR-32), this compound registered an inhibition at 1 µM of 41% and an inhibition at 10 µM of 100%. Besides, the inhibition constant Ki in data set [2] amounted to 130 pM.
With `CN1CCC[C@H]1COc1cncc(-c2ccc(F)c(Cl)c2)c1` [Example 42, 5-(3-Chloro-4-fluorolphenyl)-3-(1-methyl-2-(S)-pyrrolidinylmethoxy)pyridine Dihydrochloride], 1 µM produced 38% inhibition in data set [1] (IMR-32). Moreover, the Ki in data set [2] worked out at 55 pM.
In turn, `CN1CCC[C@H]1COc1cncc(-c2cccc(N)c2)c1.Cl.Cl` [Example 43, 5-(3-Aminophenyl)-3-(1-methyl-2-(S)-pyrrolidinylmethoxy)pyridine Dihydrochloride] had a melting point of 80 to 82 °C. Besides, the inhibition at 1 µM in data set [1] (IMR-32) was 36%. The inhibitory constant (Ki) in data set [2] came to 430 pM.
With `CN1CCC[C@H]1COc1cncc(-c2ccccc2C=O)c1` [Example 44, 5-(2-Formylphenyl)-3-(1-methyl-2-(S)-pyrrolidinylmethoxy)pyridine Dihydrochloride], in data set [1] (IMR-32), the inhibition at 1 µM was determined as 30% and at 10 µM the inhibition was 97%. In data set [2], the Ki was 560 pM.
In the same order, the values of `Cc1ccccc1-c1cncc(OC[C@@H]2CCCN2C)c1` [Example 45, 5-(2-Methylphenyl)-3-(1-methyl-2-(S)-pyrrolidinylmethoxy)pyridine Dihydrochloride] are 41%, 100% and 1100 pM.
On to `CN1CCC[C@H]1COc1cncc(-c2ccc(C(F)(F)F)cc2)c1` [Example 46, 5-(4-(Trifluoromethyl)phenyl)-3-(1)-methyl-2-(S)-pyrrolidinylmethoxy)pyridine Dihydrochloride], for which, in data set [1] (IMR-32), the inhibition at 1 µM was determined as 37%. Besides, in data set [2], the Ki turned out to be 150 pM.
As for `CCCCC#Cc1cncc(OC[C@@H]2CCN2)c1.Cl.Cl` [Example 58, 5-Hexynyl-3-(2-(S)-azetidinylmethoxy)pyridine Dihydrochloride], in data set [1] (86Rb+ efflux, activation), the half-maximal effective concentration (EC50) came out at 800000 pM. In data set [1] (86Rb+ efflux, percent relative to the response elicited by 100 μM (S)-nicotine), this compound yielded an IMR-32 maximal response of 47%. The inhibition constant (Ki) in data set [2] was 56 pM.
